The values below come from patent publication US20240059698A1 (Accutar Biotechnology Inc., priority 2022, published 2024).

The subject of experiment [1] is HCC827-SVD cells (human EGFR exon 20 insertion mutant D770_N771insSVD). Briefly: Cell growth inhibition (CellTiter-Glo), HCC827-SVD. The experiment is classed as cell-based. As to conditions: 72 h, 3 days. The procedure:
(§1) Generation of HCC827-SVD, HCC827-ASV, and HCC827-YVMA cell lines. The HCC827-SVD cell line was generated by first transducing HCC827 cells (ATCC) with lentiviral particles expressing codon-optimized human EGFR exon 20 insertion mutant D770_N771insSVD, and then selecting under 5 µg/mL puromycin treatment for a week. The resulting cells were further transduced with lentiviral particles carrying EGFR sgRNA and CAS9 to knockout the endogenous alleles of EGER and then selected under 500 µg/mL hygromycin B treatment for two weeks. The limiting dilution approach was used to subsequently generate the single clone of the HCC827-SVD stable cell line. Endogenous EGFR knockout was confirmed by Sanger sequencing of cell genomic DNA, and expression of exogenous mutant EGFR was verified by Western blot analysis.
(§2) 2. Cell Growth Inhibition for HCC827, HCC827-SVD, HCC827-ASV, HCC827-YVMA, and A431.
(§3) HCC827(ATCC), HCC827-SVD, HCC827-ASV, and HCC827-YVMA cells were seeded in 96-well plates at 5000 cells/well in 90 μL of RPMI growth medium containing 10% FBS and 1% Penicillin Streptomycin. A431 (ATCC) cells were seeded in 96-well plates at 5000 cells/well in 90 μL of DMEM growth medium containing 10% FBS and 1% Penicillin Streptomycin. Cells were incubated at 37° C. overnight and then administered with 10 μL 10× test compounds prepared in the growth medium at various concentrations. After administration of the compounds, cells were incubated at 37° C. for 3 days. Before the CellTiter-Glo assay, the plates were equilibrated at room temperature for approximately 30 minutes. 100 ul of CellTiter-Glo reagent (Promega) was added to each well. The plates were then incubated at room temperature for 10 minutes and luminescence was recorded by the EnSight® multimode plate reader (PerkinElmer). Table 7 listed selected compounds in cellular growth assay.
On the technique in general: ATP-based viability assays read luminescence as a measure of living cells.

Experiment [2] deals with HCC827-YVMA cells (human ERBB2 exon20 insertion mutant A775_G776ins YVMA). As to the kind of experiment: Cell growth inhibition (CellTiter-Glo), HCC827-YVMA. The experiment is classed as cell-based. As to conditions: 72 h, HCC827-YVMA cells, 3 days, CellTiter-Glo, read-out: Cell growth inhibition, GI50 (nM) HCC827-YVMA. The procedure:
as §1
HCC827-ASV and HCC827-YVMA cell lines were generated in a similar approach as HCC827-SVD, except that HCC827 cells (ATCC) were first transduced with lentiviral particles expressing codon-optimized human EGFR exon 20 insertion mutant V769_D770insASV and human ERBB2 exon20 insertion mutant A775_G776ins YVMA, respectively.
as §2, §3

For the molecule `C=CC(=O)N1CCC(c2c[nH]c3ncnc(Nc4ccc(Oc5ccnc(Nc6nccs6)c5)cc4F)c23)CC1` [Compound 72, 1-(4-(4-((2-fluoro-4-((2-(thiazol-2-ylamino)pyridin-4-yl)oxy)phenyl)amino)-7H-pyrrolo[2,3-d]pyrimidin-5-yl)piperidin-1-yl)prop-2-en-1-one], the 50% growth inhibitory concentration (GI50) (as a rule, the concentration that inhibits growth by half) lay within 200 to 1000 nM in experiment [1] and 50 to 200 nM in experiment [2].
Regarding `C=CC(=O)N1CCC(c2c[nH]c3ncnc(Nc4ccc(OCc5ccc6cc[nH]c6n5)c(Cl)c4)c23)CC1` [Compound 73, 1-(4-(4-((4-((1H-pyrrolo[2,3-b]pyridin-6-yl)methoxy)-3-chlorophenyl)amino)-7H-pyrrolo[2,3-d]pyrimidin-5-yl)piperidin-1-yl)prop-2-en-1-one], the GI50 in experiment [1] and in experiment [2] was less than 50 nM each time.
As for `C=CC(=O)N1CCC(c2c(-c3ccc(N4CCN(C)CC4)cc3)[nH]c3ncnc(Nc4ccc(OCc5ccccn5)c(Cl)c4)c23)CC1` [Compound 74, 1-(4-(4-((3-chloro-4-(pyridin-2-ylmethoxy)phenyl)amino)-6-(4-(4-methylpiperazin-1-yl)phenyl)-7H-pyrrolo[2,3-d]pyrimidin-5-yl)piperidin-1-yl)prop-2-en-1-one], the GI50 in experiment [1] and in experiment [2] was less than 50 nM in each case.
As for `C=CC(=O)N1CCC(c2c[nH]c3ncnc(Nc4ccc(OCc5ccc6sccc6n5)c(Cl)c4)c23)CC1` [Compound 75, 1-(4-(4-((3-chloro-4-(thieno[3,2-b]pyridin-5-ylmethoxy)phenyl)amino)-7H-pyrrolo[2,3-d]pyrimidin-5-yl)piperidin-1-yl)prop-2-en-1-one], the GI50 in experiment [1] and in experiment [2] was less than 50 nM in each case.
Turning to `C=CC(=O)N1CCC(c2c(C)[nH]c3ncnc(Nc4ccc(OCc5ccccn5)c(Cl)c4)c23)CC1` [Compound 76, 1-(4-(4-((3-chloro-4-(pyridin-2-ylmethoxy)phenyl)amino)-6-methyl-7H-pyrrolo[2,3-d]pyrimidin-5-yl)piperidin-1-yl)prop-2-en-1-one], the GI50 in experiment [1] and in experiment [2] was less than 50 nM throughout.
Consider `C=CC(=O)N1CCC(c2c[nH]c3ncnc(Nc4ccc(OCc5cncnc5)c(Cl)c4)c23)CC1` [Compound 77, 1-(4-(4-((3-chloro-4-(pyrimidin-5-ylmethoxy)phenyl)amino)-7H-pyrrolo[2,3-d]pyrimidin-5-yl)piperidin-1-yl)prop-2-en-1-one], for which the GI50 in experiment [1] and in experiment [2] was less than 50 nM throughout.
In the case of `C=CC(=O)N1CCC(c2c[nH]c3ncnc(Nc4ccc(Oc5ccnc(Nc6cnccn6)c5)cc4F)c23)CC1` [Compound 78, 1-(4-(4-((2-fluoro-4-((2-(pyrazin-2-ylamino)pyridin-4-yl)oxy)phenyl)amino)-7H-pyrrolo[2,3-d]pyrimidin-5-yl)piperidin-1-yl)prop-2-en-1-one], the 50% growth inhibitory concentration (GI50) in experiment [1] lay in the range of 200 to 1000 nM; in experiment [2] it was 50 to 200 nM.
`C=CC(=O)N1CCC(c2c[nH]c3ncnc(Nc4ccc(OCc5ccnc(N6CC7CC7C6)c5)cc4F)c23)CC1` (stereo not drawn) [Compound 79, 1-(4-(4-((4-((2-(3-azabicyclo[3.1.0]hexan-3-yl)pyridin-4-yl)methoxy)-2-fluorophenyl)amino)-7H-pyrrolo[2,3-d]pyrimidin-5-yl)piperidin-1-yl)prop-2-en-1-one]: the concentration for 50% growth inhibition (GI50) in experiment [1] and in experiment [2] was 200 to 1000 nM in each case.
Consider `C=CC(=O)N1CCC(c2c[nH]c3ncnc(Nc4ccc(OCc5cncc(OC)c5)c(Cl)c4)c23)CC1` [Compound 80, 1-(4-(4-((3-chloro-4-((5-methoxypyridin-3-yl)methoxy)phenyl)amino)-7H-pyrrolo[2,3-d]pyrimidin-5-yl)piperidin-1-yl)prop-2-en-1-one], for which the GI50 in experiment [1] and in experiment [2] was less than 50 nM in each case.
On to `C=CC(=O)N1CCC(c2c[nH]c3ncnc(Nc4ccc(OCc5ccnn5CC)c(Cl)c4)c23)CC1` [Compound 81, 1-(4-(4-((3-chloro-4-((1-ethyl-1H-pyrazol-5-yl)methoxy)phenyl)amino)-7H-pyrrolo[2,3-d]pyrimidin-5-yl)piperidin-1-yl)prop-2-en-1-one], for which the concentration for 50% growth inhibition (GI50) in experiment [1] and in experiment [2] was 50 to 200 nM throughout.
Take `C=CC(=O)N1CCC(c2c[nH]c3ncnc(Nc4ccc(Oc5ccnc(-c6cccc(F)c6)c5)cc4F)c23)CC1` [Compound 82, 1-(4-(4-((2-fluoro-4-((2-(3-fluorophenyl)pyridin-4-yl)oxy)phenyl)amino)-7H-pyrrolo[2,3-d]pyrimidin-5-yl)piperidin-1-yl)prop-2-en-1-one]: the GI50 in experiment [1] was greater than 1000 nM; in experiment [2] it was 200 to 1000 nM.
For the molecule `C=CC(=O)N1CCC(c2c[nH]c3ncnc(Nc4ccc(Oc5ccnc(Nc6ccncn6)c5)cc4F)c23)CC1` [Compound 83, 1-(4-(4-((2-fluoro-4-((2-(pyrimidin-4-ylamino)pyridin-4-yl)oxy)phenyl)amino)-7H-pyrrolo[2,3-d]pyrimidin-5-yl)piperidin-1-yl)prop-2-en-1-one], the GI50 in experiment [1] lay in the range of 200 to 1000 nM; in experiment [2], 50 to 200 nM.
`C=CC(=O)N1CCC(c2c[nH]c3ncnc(Nc4ccc(OCc5ccnc(NC6CCC6)c5)cc4F)c23)CC1` [Compound 84, 1-(4-(4-((4-((2-(cycloButylamino)pyridin-4-yl)methoxy)-2-fluorophenyl)amino)-7H-pyrrolo[2,3-d]pyrimidin-5-yl)piperidin-1-yl)prop-2-en-1-one]: the GI50 in experiment [1] was less than 50 nM; in experiment [2], 50 to 200 nM.
For `C=CC(=O)N1CCC(c2c[nH]c3ncnc(Nc4ccc(OCc5cn(C(C)C)cn5)c(Cl)c4)c23)CC1` [Compound 85, 1-(4-(4-((3-chloro-4-((1-isopropyl-1H-imidazol-4-yl)methoxy)phenyl)amino)-7H-pyrrolo[2,3-d]pyrimidin-5-yl)piperidin-1-yl)prop-2-en-1-one], the GI50 in experiment [1] and in experiment [2] was 50 to 200 nM each time.
Take `C=CC(=O)N1CCC(c2c[nH]c3ncnc(Nc4ccc(OCc5cncs5)c(Cl)c4)c23)CC1` [Compound 86, 1-(4-(4-((3-chloro-4-(thiazol-5-ylmethoxy)phenyl)amino)-7H-pyrrolo[2,3-d]pyrimidin-5-yl)piperidin-1-yl)prop-2-en-1-one]: the concentration for 50% growth inhibition (GI50) in experiment [1] and in experiment [2] was less than 50 nM each time.
On to `C=CC(=O)N1CCC(c2c[nH]c3ncnc(Nc4ccc(OCc5cnc(C(F)(F)F)s5)c(Cl)c4)c23)CC1` [Compound 87, 1-(4-(4-((3-chloro-4-((2-(trifluoromethyl)thiazol-5-yl)methoxy)phenyl)amino)-7H-pyrrolo[2,3-d]pyrimidin-5-yl)piperidin-1-yl)prop-2-en-1-one], for which the GI50 in experiment [1] and in experiment [2] was 50 to 200 nM throughout.
With `C=CC(=O)N1CCC(c2c[nH]c3ncnc(Nc4ccc(OCc5cccc(C6CC6)n5)c(Cl)c4)c23)CC1` [Compound 88, 1-(4-(4-((3-chloro-4-((6-cyclopropylpyridin-2-yl)methoxy)phenyl)amino)-7H-pyrrolo[2,3-d]pyrimidin-5-yl)piperidin-1-yl)prop-2-en-1-one], the GI50 in experiment [1] and in experiment [2] was 50 to 200 nM throughout.
For `C=CC(=O)N1CCC(c2c[nH]c3ncnc(Nc4ccc(OCc5cc(C6CC6)ccn5)c(Cl)c4)c23)CC1` [Compound 89, 1-(4-(4-((3-chloro-4-((4-cyclopropylpyridin-2-yl)methoxy)phenyl)amino)-7H-pyrrolo[2,3-d]pyrimidin-5-yl)piperidin-1-yl)prop-2-en-1-one], the GI50 in experiment [1] and in experiment [2] was 50 to 200 nM throughout.
